Assay results as given in PubChem BioAssay (NCI).
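Interpolation was linear, between the two tested concentrations surrounding the appropriate level; five concentrations were tested over 48 hours in 96-well plates. TGI: concentration producing complete growth inhibition.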

Legend:
Assay in all cases: inhibition of tumour cell growth, NCI panel, 48 h
[1] = tested on: UACC-62 melanoma
[2] = tested on: HCT-15 colon
[3] = tested on: DU-145 prostate
[4] = tested on: RXF 393 renal
[5] = tested on: KM12 colon
[6] = tested on: HCC-2998 colon
[7] = tested on: UACC-257 melanoma
[8] = tested on: UO-31 renal
[9] = tested on: MOLT-4 leukemia
[10] = tested on: DMS 273 small cell lung
[11] = tested on: KM20L2 colon

C#CC(C)(C)Oc1cc(OC)c2c(=O)c3ccccc3n(C)c2c1
TGI [1]: 32 µM | TGI [2]: 44.5 µM | TGI [3]: 55.8 µM | TGI [4]: 84.8 µM | TGI [5]: 37.8 µM | TGI [6]: > 100 µM | TGI [7]: 26.4 µM | TGI [8]: 22.5 µM | TGI [9]: 22.3 µM

[N-]=[N+]=NC1(c2ccccc2)C(=O)Nc2ccccc2C1=O (stereo not given)
TGI [1]: 76.3 µM | TGI [2]: > 100 µM | TGI [3]: > 100 µM | TGI [4]: 75.9 µM | TGI [5]: > 100 µM | TGI [6]: > 100 µM | TGI [7]: > 100 µM | TGI [8]: 73.8 µM | TGI [9]: 76.6 µM

O=c1oc2ccccc2cc1-c1nc2ccc([N+](=O)[O-])cc2o1
TGI [1]: > 100 µM | TGI [2]: > 100 µM | TGI [3]: > 100 µM | TGI [4]: > 100 µM | TGI [5]: > 100 µM | TGI [6]: > 100 µM | TGI [7]: > 100 µM | TGI [8]: > 100 µM | TGI [9]: > 100 µM

O=C1c2cc([N+](=O)[O-])ccc2NC2C(O)c3ccccc3N12 (stereo not given)
TGI [1]: 47.9 µM | TGI [2]: > 100 µM | TGI [3]: 94.5 µM | TGI [4]: 34.5 µM | TGI [5]: > 100 µM | TGI [6]: > 100 µM | TGI [7]: 55.3 µM | TGI [8]: > 100 µM | TGI [9]: 49.1 µM

c1ccc2c(c1)CC1c3[nH]c4ccccc4c3CCN21 (stereo not given)
TGI [1]: > 10 µM | TGI [2]: > 10 µM | TGI [3]: > 10 µM | TGI [4]: > 10 µM | TGI [5]: > 10 µM | TGI [6]: > 10 µM | TGI [7]: > 10 µM | TGI [8]: > 10 µM | TGI [9]: > 10 µM

COc1ccc(C2CC(c3c(C)nn(-c4ccccc4)c3-c3ccc(C)cc3O)=NN2c2ccccc2)cc1 (stereo not given)
TGI [1]: > 100 µM | TGI [2]: > 100 µM | TGI [3]: > 100 µM | TGI [4]: > 100 µM | TGI [5]: > 43.7 µM | TGI [6]: > 100 µM | TGI [7]: > 100 µM | TGI [8]: > 100 µM | TGI [9]: > 100 µM

O=C1c2cc(Cl)ccc2-n2c(noc2=O)C2CSCN12 (stereo not given)
TGI [1]: > 100 µM | TGI [2]: > 100 µM | TGI [3]: > 100 µM | TGI [4]: > 100 µM | TGI [5]: > 100 µM | TGI [6]: > 100 µM | TGI [7]: > 100 µM | TGI [8]: > 100 µM | TGI [9]: > 100 µM

CC1CN=C(c2cccc(OCc3ccc(COc4cccc(C5=NCC(C)N5)c4)cc3)c2)N1 (stereo not given)
TGI [1]: > 100 µM | TGI [2]: > 100 µM | TGI [3]: > 100 µM | TGI [4]: > 100 µM | TGI [5]: 81.7 µM | TGI [6]: 48.4 µM | TGI [7]: 44.8 µM | TGI [8]: > 100 µM | TGI [9]: 57.3 µM

CC1=NN(c2nc(N)nc(/C(C#N)=C/c3ccncc3)n2)C(C)(C)C1
TGI [1]: > 100 µM | TGI [2]: > 100 µM | TGI [3]: > 100 µM | TGI [4]: > 100 µM | TGI [5]: > 100 µM | TGI [6]: > 100 µM | TGI [7]: > 100 µM | TGI [8]: > 100 µM | TGI [9]: > 100 µM

Cc1nc2c(n1Cc1ccc(Cl)cc1)C(=O)c1ccccc1C2=O
TGI [1]: > 75 µM | TGI [2]: > 75 µM | TGI [10]: > 75 µM | TGI [4]: > 75 µM | TGI [5]: > 75 µM | TGI [6]: > 75 µM | TGI [11]: > 75 µM | TGI [7]: > 75 µM | TGI [8]: > 75 µM | TGI [9]: > 75 µM

COc1cc(C2SCC(=O)N2NC(=O)c2ccc(NC(C)=O)cc2)cc(OC)c1OC (stereo not given)
TGI [1]: > 100 µM | TGI [2]: > 100 µM | TGI [3]: > 100 µM | TGI [4]: > 100 µM | TGI [5]: > 100 µM | TGI [6]: > 100 µM | TGI [7]: > 100 µM | TGI [8]: > 100 µM | TGI [9]: > 100 µM

CCOC(=O)C1C/C(C)=C(/C)SCCCS1 (stereo not given)
TGI [1]: > 100 µM | TGI [2]: > 100 µM | TGI [3]: > 100 µM | TGI [4]: > 100 µM | TGI [5]: > 100 µM | TGI [6]: > 100 µM | TGI [7]: > 100 µM | TGI [8]: > 100 µM | TGI [9]: > 100 µM

CC1=NN(c2ccc(C)cc2)C2(C1)SCC(=O)N2c1nc2ccccc2s1 (stereo not given)
TGI [1]: 45.6 µM | TGI [2]: > 100 µM | TGI [3]: > 100 µM | TGI [4]: 54.8 µM | TGI [5]: > 100 µM | TGI [6]: 48.3 µM | TGI [7]: 55.1 µM | TGI [8]: > 100 µM | TGI [9]: 46.1 µM

Cc1cs/c(=N\C(P(=O)(O)O)P(=O)(O)O)n1C
TGI [1]: > 100 µM | TGI [2]: > 100 µM | TGI [3]: > 100 µM | TGI [4]: > 100 µM | TGI [5]: > 100 µM | TGI [6]: > 100 µM | TGI [7]: > 100 µM | TGI [8]: > 100 µM | TGI [9]: > 100 µM

CC(C)(CN1CCCCC1)C(=O)CC(SCCS(=O)(=O)O)c1ccc(Br)cc1 (stereo not given)
TGI [1]: 3.69 µM | TGI [2]: 6.91 µM | TGI [10]: 3.58 µM | TGI [4]: 2.71 µM | TGI [5]: 5.36 µM | TGI [6]: 4.55 µM | TGI [11]: 3.53 µM | TGI [7]: 11.5 µM | TGI [8]: 2.99 µM | TGI [9]: 7.62 µM

O=C(c1cccs1)N(C(=S)N1CCN(c2ccccc2)CC1)c1ccccc1
TGI [1]: > 100 µM | TGI [2]: > 100 µM | TGI [10]: > 100 µM | TGI [4]: > 100 µM | TGI [5]: > 100 µM | TGI [11]: > 100 µM | TGI [7]: > 100 µM | TGI [8]: > 100 µM | TGI [9]: > 100 µM

O=C1/C(=C/c2cccc(Oc3ccccc3)c2)N=C(c2ccccc2)N1c1nc2ccc(Sc3ccccc3)cc2[nH]1
TGI [1]: 74.9 µM | TGI [2]: > 100 µM | TGI [3]: > 100 µM | TGI [4]: > 100 µM | TGI [5]: > 100 µM | TGI [6]: 26.3 µM | TGI [7]: 85.6 µM | TGI [8]: > 100 µM | TGI [9]: > 100 µM
